The structures appear in SMILES notation. Counter-ions that a name gives are not always drawn.

The assay has as its target rat TRPV1 (Rattus norvegicus (Rat), UniProt O35433). The note with it: read-out: Rat IC50.

Chain of rat TRPV1 (O35433 whole entry): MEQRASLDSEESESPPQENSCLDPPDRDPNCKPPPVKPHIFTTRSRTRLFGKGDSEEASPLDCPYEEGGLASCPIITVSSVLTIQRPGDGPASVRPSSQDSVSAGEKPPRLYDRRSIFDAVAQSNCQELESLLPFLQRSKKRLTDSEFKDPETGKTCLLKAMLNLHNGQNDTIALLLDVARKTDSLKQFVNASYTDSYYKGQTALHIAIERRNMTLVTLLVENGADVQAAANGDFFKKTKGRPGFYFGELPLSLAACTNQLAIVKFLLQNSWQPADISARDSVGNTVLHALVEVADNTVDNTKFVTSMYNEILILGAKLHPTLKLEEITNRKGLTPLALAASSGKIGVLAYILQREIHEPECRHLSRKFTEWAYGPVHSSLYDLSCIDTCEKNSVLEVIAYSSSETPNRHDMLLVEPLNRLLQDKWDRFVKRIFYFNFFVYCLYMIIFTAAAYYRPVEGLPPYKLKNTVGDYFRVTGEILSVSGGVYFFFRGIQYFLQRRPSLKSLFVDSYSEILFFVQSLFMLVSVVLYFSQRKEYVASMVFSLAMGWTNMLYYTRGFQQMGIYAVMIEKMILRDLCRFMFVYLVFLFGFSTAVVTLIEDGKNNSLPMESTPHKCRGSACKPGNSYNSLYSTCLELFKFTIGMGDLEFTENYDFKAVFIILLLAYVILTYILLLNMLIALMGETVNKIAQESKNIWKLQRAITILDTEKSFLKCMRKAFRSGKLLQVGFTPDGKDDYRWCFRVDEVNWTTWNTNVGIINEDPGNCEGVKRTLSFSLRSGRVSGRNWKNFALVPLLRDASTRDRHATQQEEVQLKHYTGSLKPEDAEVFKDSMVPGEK

As for `CC(C)c1nc2c(c(Nc3ccc(SC(F)(F)F)cc3)n1)CCN(c1ncccc1C(F)(F)F)CC2` [Example 104, [2-Isopropyl-7-(3-trifluoromethyl-pyridin-2-yl)-6,7,8,9-tetrahydro-5H-pyrimido[4,5-d]azepin-4-yl]-(4-trifluoromethylsulfanyl-phenyl)-amine], the IC50 stood at 320 nM.

With `CCS(=O)(=O)c1cccnc1N1CCc2nc(N3CCCCC3)nc(Nc3ccc(C(F)(F)F)cc3)c2CC1` [Example 297, 7-[3-(Ethylsulfonyl)pyridin-2-yl]-2-piperidin-1-yl-N-[4-(trifluoromethyl)phenyl]-6,7,8,9-tetrahydro-5H-pyrimido[4,5-d]azepin-4-amine], the IC50 came out at 1080 nM.

Turning to `CN1CCN(c2nc3c(c(Nc4ccc(C(F)(F)F)c(Cl)c4)n2)CCN(c2ncccc2C(F)(F)F)CC3)CC1` [Example 221, N-[3-Chloro-4-(trifluoromethyl)phenyl]-2-(4-methylpiperazin-1-yl)-7-[3-(trifluoromethyl)pyridin-2-yl]-6,7,8,9-tetrahydro-5H-pyrimido[4,5-d]azepin-4-amine], the concentration for half-maximal inhibition (IC50) was determined as 720 nM.

As to `COC(=O)c1ccc(Nc2nc(N(C)C)nc3c2CCN(c2ncccc2C(F)(F)F)CC3)cc1` [Example 77B, 4-[2-Dimethylamino-7-(3-trifluoromethyl-pyridin-2-yl)-6,7,8,9-tetrahydro-5H-pyrimido[4,5-d]azepin-4-ylamino]-benzoic acid methyl ester trifluoroacetic acid salt], the IC50 stood at 580 nM.

For `CC(C)c1nc2c(c(Nc3ccc(C(F)(F)F)cc3)n1)CCN(c1ncccc1N)CC2` [Example 86, [7-(3-Amino-pyridin-2-yl)-2-isopropyl-6,7,8,9-tetrahydro-5H-pyrimido[4,5-d]azepin-4-yl]-(4-trifluoromethyl-phenyl)-amine], the IC50 came out at 850 nM.

With `CC(C)c1nc2c(c(NCCc3c(Cl)cccc3Cl)n1)CCN(c1ncccc1C(F)(F)F)CC2` [Example 125, N-[2-(2,6-Dichlorophenyl)ethyl]-2-(1-methylethyl)-7-[3-(trifluoromethyl)pyridin-2-yl]-6,7,8,9-tetrahydro-5H-pyrimido[4,5-d]azepin-4-amine], the 50% inhibitory concentration (IC50) was 610 nM.

Turning to `OC1CCN(c2nc3c(c(Nc4ccc(C(F)(F)F)cc4)n2)CCN(c2ncccc2C(F)(F)F)CC3)CC1` [Example 59B, 1-[4-(4-Trifluoromethyl-phenylamino)-7-(3-trifluoromethyl-pyridin-2-yl)-6,7,8,9-tetrahydro-5H-pyrimido[4,5-d]azepin-2-yl]-piperidin-4-ol trifluoroacetic acid salt], the IC50 was 380 nM.

For the molecule `CC(C)(C(=O)O)c1ccc(Nc2nc(N3CCCCC3)nc3c2CCN(c2ncccc2C(F)(F)F)CC3)cc1` [Example 186, 2-Methyl-2-[4-({2-piperidin-1-yl-7-[3-(trifluoromethyl)pyridin-2-yl]-6,7,8,9-tetrahydro-5H-pyrimido[4,5-d]azepin-4-yl}amino)phenyl]propanoic acid], the half-maximal inhibitory concentration (IC50) came to 140 nM.

As to `CC(C)c1nc2c(c(NC3CCC(C(C)(C)C)CC3)n1)CCN(c1ncccc1C(F)(F)F)CC2` (stereo not drawn) [Example 122, N-[4-(1,1-Dimethylethyl)cyclohexyl]-2-(1-methylethyl)-7-[3-(trifluoromethyl)pyridin-2-yl]-6,7,8,9-tetrahydro-5H-pyrimido[4,5-d]azepin-4-amine], the IC50 worked out at 190 nM.

`CC(C)(C#N)c1ccc(Nc2nc(N3CCOCC3)nc3c2CCN(c2ncccc2C(F)(F)F)CC3)cc1` [Example 382, 2-Methyl-2-{4-[2-morpholin-4-yl-7-(3-trifluoromethyl-pyridin-2-yl)-6,7,8,9-tetrahydro-5H-pyrimido[4,5-d]azepin-4-ylamino]-phenyl}-propionitrile]: the IC50 was 40 nM.

For the molecule `Cc1cc(C(F)(F)F)ccc1Nc1nc(N2CCOC(CO)C2)nc2c1CCN(c1ncccc1C(F)(F)F)CC2` (stereo not drawn) [Example 273, [4-(4-{[2-Methyl-4-(trifluoromethyl)phenyl]amino}-7-[3-(trifluoromethyl)pyridin-2-yl]-6,7,8,9-tetrahydro-5H-pyrimido[4,5-d]azepin-2-yl)morpholin-2-yl]methanol], the IC50 amounted to 680 nM.

In the case of `Cc1ccccc1Nc1nc2c(c(Nc3ccc(C(F)(F)F)cc3)n1)CCN(c1ncccc1C(F)(F)F)CC2` [Example 278, N^2-(2-Methylphenyl)-N^4-[4-(trifluoromethyl)phenyl]-7-[3-(trifluoromethyl)pyridin-2-yl]-6,7,8,9-tetrahydro-5H-pyrimido[4,5-d]azepine-2,4-diamine trifluoroacetic acid salt], the IC50 amounted to 670 nM.

With `FC(F)(F)c1ccc(Nc2nc(N3CCOCC3)nc3c2CCN(c2ncccc2C(F)(F)F)CC3)nc1` [Example 41, [2-Morpholin-4-yl-7-(3-trifluoromethyl-pyridin-2-yl)-6,7,8,9-tetrahydro-5H-pyrimido[4,5-d]azepin-4-yl]-(5-trifluoromethyl-pyridin-2-yl)-amine], the half-inhibitory concentration (IC50) came out at 49 nM.

As to `Cc1cc(C(F)(F)F)ccc1Nc1nc(N2CCCC2C(C)C)nc2c1CCN(c1ncccc1C(F)(F)F)CC2` (stereo not drawn) [Example 269, 2-[2-(1-Methylethyl)pyrrolidin-1-yl]-N-[2-methyl-4-(trifluoromethyl)phenyl]-7-[3-(trifluoromethyl)pyridin-2-yl]-6,7,8,9-tetrahydro-5H-pyrimido[4,5-d]azepin-4-amine], the IC50 came out at 180 nM.

Consider `CC(C)c1nc2c(c(Nc3ccc(C(F)(F)F)c(F)c3)n1)CCN(c1ncccc1C(F)(F)F)CC2` [Example 140, N-[3-Fluoro-4-(trifluoromethyl)phenyl]-2-(1-methylethyl)-7-[3-(trifluoromethyl)pyridin-2-yl]-6,7,8,9-tetrahydro-5H-pyrimido[4,5-d]azepin-4-amine], for which the IC50 was 190 nM.

As to `CC(C)(C)c1ccc(Nc2ncnc3c2CCN(c2ncccc2C(F)(F)F)CC3)cc1` [Example 1, (4-tert-Butyl-phenyl)-[7-(3-trifluoromethyl-pyridin-2-yl)-6,7,8,9-tetrahydro-5H-pyrimido[4,5-d]azepin-4-yl]-amine], the 50% inhibitory concentration (IC50) worked out at 90 nM.

`FC(F)(F)c1ccc(Nc2nc(N3CCCCCC3)nc3c2CCN(c2ncccc2C(F)(F)F)CC3)cn1` [Example 223, 2-Azepan-1-yl-7-[3-(trifluoromethyl)pyridin-2-yl]-N-[6-(trifluoromethyl)pyridin-3-yl]-6,7,8,9-tetrahydro-5H-pyrimido[4,5-d]azepin-4-amine]: the concentration for half-maximal inhibition (IC50) was determined as 30 nM.

`CC(C)c1nc2c(c(Nc3cccc(C(F)(F)F)c3)n1)CCN(c1ncccc1C(F)(F)F)CC2` [Example 10, [2-Isopropyl-7-(3-trifluoromethyl-pyridin-2-yl)-6,7,8,9-tetrahydro-5H-pyrimido[4,5-d]azepin-4-yl]-(3-trifluoromethyl-phenyl)-amine]: the IC50 is 930 nM.

Regarding `COC(=O)C(C)(C)c1ccc(Nc2nc(N3CCOCC3)nc3c2CCN(c2ncccc2C(F)(F)F)CC3)cc1` [Example 376, 2-Methyl-2-{4-[2-morpholin-4-yl-7-(3-trifluoromethyl-pyridin-2-yl)-6,7,8,9-tetrahydro-5H-pyrimido[4,5-d]azepin-4-ylamino]-phenyl}-propionic acid methyl ester], the IC50 turned out to be 110 nM.

As for `CCCCOc1nc2c(c(Nc3ccc(C(F)(F)F)cc3)n1)CCN(c1ncccc1C(F)(F)F)CC2` [Example 343, 2-(Butyloxy)-N-[4-(trifluoromethyl)phenyl]-7-[3-(trifluoromethyl)pyridin-2-yl]-6,7,8,9-tetrahydro-5H-pyrimido[4,5-d]azepin-4-amine], the half-maximal inhibitory concentration (IC50) stood at 60 nM.

As to `FC(F)(F)c1ccc(Nc2nc(N3CCSCC3)nc3c2CCN(c2ncccc2C(F)(F)F)CC3)cc1` [Example 100, [2-Thiomorpholin-4-yl-7-(3-trifluoromethyl-pyridin-2-yl)-6,7,8,9-tetrahydro-5H-pyrimido[4,5-d]azepin-4-yl]-(4-trifluoromethyl-phenyl)-amine], the IC50 worked out at 31 nM.

In the case of `O=S(=O)(c1ccc(Nc2nc(OC3CCCCC3)nc3c2CCN(c2ncccc2C(F)(F)F)CC3)cc1)C(F)(F)F` [Example 308, 2-(Cyclohexyloxy)-7-[3-(trifluoromethyl)pyridin-2-yl]-N-{4-[(trifluoromethyl)sulfonyl]phenyl}-6,7,8,9-tetrahydro-5H-pyrimido[4,5-d]azepin-4-amine], the IC50 was found to be 360 nM.

Regarding `CC(C)c1nc2c(c(Nc3ccc(S(=O)(=O)N(C)C)cc3)n1)CCN(c1ncccc1C(F)(F)F)CC2` [Example 154, N,N-Dimethyl-4-({2-(1-methylethyl)-7-[3-(trifluoromethyl)pyridin-2-yl]-6,7,8,9-tetrahydro-5H-pyrimido[4,5-d]azepin-4-yl}amino)benzenesulfonamide], the IC50 turned out to be 1140 nM.

Take `CC(C)c1nc2c(c(Nc3ccc(C(F)(F)F)nc3)n1)CCN(c1ncccc1S(C)(=O)=O)CC2` [Example 282, 2-(1-Methylethyl)-7-[3-(methylsulfonyl)pyridin-2-yl]-N-[6-(trifluoromethyl)pyridin-3-yl]-6,7,8,9-tetrahydro-5H-pyrimido[4,5-d]azepin-4-amine]: the IC50 was determined as 130 nM.

In the case of `FC(F)(F)c1ccc(Nc2nc(N3CCCCC3)nc3c2CCN(c2ncccc2C(F)(F)F)CC3)cn1` [Example 234, 2-Piperidin-1-yl-7-[3-(trifluoromethyl)pyridin-2-yl]-N-[6-(trifluoromethyl)pyridin-3-yl]-6,7,8,9-tetrahydro-5H-pyrimido[4,5-d]azepin-4-amine trifluoroacetic acid salt], the IC50 is 80 nM.

For `CC(C)c1nc2c(c(Nc3ccc(C(C)(C)C)cc3)n1)CCN(c1ncccc1C(F)(F)F)CC2` [Example 8, (4-tert-Butyl-phenyl)-[2-isopropyl-7-(3-trifluoromethyl-pyridin-2-yl)-6,7,8,9-tetrahydro-5H-pyrimido[4,5-d]azepin-4-yl]-amine], the IC50 was 25 nM.

On to `COCCN(C)c1nc2c(c(Nc3ccc(C(F)(F)F)c(Cl)c3)n1)CCN(c1ncccc1C(F)(F)F)CC2` [Example 229, N^4-[3-Chloro-4-(trifluoromethyl)phenyl]-N^2-methyl-N^2-[2-(methyloxy)ethyl]-7-[3-(trifluoromethyl)pyridin-2-yl]-6,7,8,9-tetrahydro-5H-pyrimido[4,5-d]azepine-2,4-diamine trifluoroacetic acid salt], for which the 50% inhibitory concentration (IC50) came to 60 nM.

Broadly, the IC50 is the concentration needed to halve the response being measured.
